Measurements reported in paper PMC12430278, “A Simple and Reliable Method for the Determination of Isorhapontigenin in Murine Biological Matrices: Application in a Tissue Distribution Study” (Molecules, 2025).
Read-outs that look alike come from different tables or passages of the source.

What was measured:
[1] = Stability of ISO in plasma samples under various storage conditions; format: in vitro ADME; conditions: mouse plasma, read-out: Remaining (%, Mean ± SD)
Description: (§1) In bioanalysis, analyte stability in biological matrices is crucial for ensuring accurate and reliable quantification. Instability can result in degradation or transformation during sample collection, storage, or processing, potentially compromising data integrity and study outcomes. Therefore, the stability of ISO in plasma was thoroughly evaluated under various storage conditions (Table 5). Assessing ISO stability in intact tissues is challenging, as replicating the native tissue environment is difficult. Accordingly, only short-term stability (6 h on ice) was assessed in tissue homogenates (Table 6). For post-preparative stability, hepatic homogenate—the most complex matrix—was selected as a representative.
For the cleanup of plasma samples, three volumes of acetonitrile (containing IS at 400 ng/mL) were added to one volume of murine plasma to precipitate proteins. After vortexing for 20 s, the samples were centrifuged at 1503× g for 10 min at 4 °C. The supernatant was carefully transferred to a glass insert preloaded in an autosampler vial. During each HPLC analysis, 10 μL of supernatant was injected into the HPLC system. The minimum plasma volume required per analysis was 25 μL.
(§2) The stability of ISO was evaluated under various storage conditions. Stock solution stability was assessed after storage at room temperature (25 °C) and –20 °C. The stability of ISO in plasma was examined under the following conditions: short-term storage (25 °C for 24 h), long-term storage (–80 °C for 52 days), three freeze–thaw cycles, and post-preparative stability (samples kept in an autosampler at 4 °C for more than 24 h). As it is difficult to evaluate ISO stability directly in tissues, only the short-term stability in tissue homogenates was assessed (6 h on ice). Similarly, post-preparative stability in processed tissue samples was assessed using liver homogenate as a representative, due to the complexity of the hepatic matrix. Stability was considered acceptable if 85–115% of the initial ISO concentration remained.

[2] = Stability of ISO in tissue homogenates; format: in vitro ADME; conditions: mouse; for remaining at 6 h, 45 ng/mL / remaining at 6 h, 1600 ng/mL: read-out: Stability Remaining (%, Mean ± SD) Short-Term Stability (6 h on Ice)
Description: as §1
For tissue samples, namely brain, fat, heart, small intestine, large intestine, kidney, liver, lung, muscle, spleen, and stomach, approximately 35 mg of each tissue was weighed and finely minced with scissors. The samples were homogenized in a 0.2% ascorbic acid solution (freshly prepared daily) in 50% methanol (v/v) at a ratio of 1:5 (w/v) for up to three cycles using a high-throughput tissue homogenizer (Wonbio-L, Wonbio, Shanghai, China) operating at 60 Hz for 60 s per cycle. Subsequently, three volumes of acetonitrile (containing IS at 400 ng/mL) were added to one volume of tissue homogenate. Following vigorous vortexing, the samples were centrifuged at 1902× g for 10 min at 15 °C. The clear supernatant was carefully transferred into an HPLC vial.
as §2

[3] = Biodistribution study in mice following oral administration; format: in vivo, C57BL/6 mice
Experimental: Following oral administration of ISO at a dose of 200 µmol/kg (equivalent to 51.7 mg/kg), three to four mice (n = 3 or 4) were euthanized at each predetermined time point (5, 10, 20, 40, 60, and 80 min), and biological samples were collected. ISO concentrations were quantified using our validated HPLC-UV method. Exposure levels (AUC) in plasma and other individual biological matrices were calculated based on the mean concentrations at each time point.
Specific pathogen-free C57BL/6 mice (male; 6–8 weeks old; weight: 18–21 g) were purchased through Shenzhen Glorybay Biotech Co. (Shenzhen, China). The animals had ad libitum access to food and water prior to dosing. ISO was administered as an aqueous suspension (vehicle: 0.3% sodium carboxymethylcellulose with 0.2% L-ascorbic acid; ISO concentration: 5 mg/mL) via oral gavage at a dose of 200 µmol/kg (equivalent to 51.7 mg/kg, dosing volume: 10.34 mL/kg). At each predetermined time point (5, 10, 20, 40, 60 and 80 min) three to four mice (n = 3 or 4) were euthanized through cervical dislocation. Blood samples were collected into heparinized centrifuge tubes and centrifuged to obtain plasma. Following blood collection, the mice were dissected, and major organs/tissues—including the brain, abdominal fat, heart, small intestine, large intestine, kidney, liver, lung, abdominal muscle, spleen, and stomach—were harvested. The organs and tissues were cut into small pieces and rinsed with isotonic saline before being blotted dry. All collected biological samples were placed on dry ice. At the end of the in vivo study, all samples were stored at –80 °C in a deep freezer until HPLC analysis.
Non-compartmental pharmacokinetic analysis was performed using WinNonlin Standard Version 1.0 (Scientific Consulting Inc., Apex, NC, USA). Plasma and tissue exposure, expressed as the area under the concentration–time curve (AUC), was calculated using the mean values of the individual mice.

[4] = cited from earlier work
[5] = mice, oral; cited from earlier work
[6] = parameters: method as in PMID 39456808; conditions: Sprague Dawley rats, two weeks daily oral 100 µmol/kg/day; cited from earlier work
[7] = test system: primary airway epithelial cells isolated from patients with chronic obstructive pulmonary disease (COPD); parameters: method as in PMID 28369685; conditions: RES as comparator; cited from earlier work
[8] = enzymatic-hydrolysis approach; cited from earlier work

COc1cc(/C=C/c2cc(O)cc(O)c2)ccc1O [ISO, trans-3,5,4′-trihydroxy-3′-methoxystilbene]
remaining at 45 ng/mL ([1]; 45.0 ng/mL, after three freeze and thaw cycles): 101 ± 4.4% | remaining at 1248 h, 45 ng/mL ([1]; 45.0 ng/mL, long term-stability (−80 °C for 52 days)): 102 ± 1.9% | remaining at 24 h, 45 ng/mL ([1]; 45.0 ng/mL, post-preparative stability (autosampler at 4 °C for at least 24 h)): 102 ± 2.7% | remaining at 24 h, 45 ng/mL ([1]; 45.0 ng/mL, short-term stability (24 h at room temperature)): 102 ± 3.7% | remaining at 1600 ng/mL ([1]; 1600 ng/mL, after three freeze and thaw cycles): 105 ± 1.1% | remaining at 1248 h, 1600 ng/mL ([1]; 1600 ng/mL, long term-stability (−80 °C for 52 days)): 106 ± 2.1% | remaining at 24 h, 1600 ng/mL ([1]; 1600 ng/mL, post-preparative stability (autosampler at 4 °C for at least 24 h)): 101.7 ± 1% | remaining at 24 h, 1600 ng/mL ([1]; 1600 ng/mL, short-term stability (24 h at room temperature)): 101.7 ± 0.9% | remaining at 6 h, 45 ng/mL ([2]; brain homogenate, 45.0 ng/mL): 101 ± 2.1% | remaining at 6 h, 1600 ng/mL ([2]; brain homogenate, 1600 ng/mL): 95.9 ± 1.7% | remaining at 6 h, 45 ng/mL ([2]; fat homogenate, 45.0 ng/mL): 101 ± 4.4% | remaining at 6 h, 1600 ng/mL ([2]; fat homogenate, 1600 ng/mL): 96.8 ± 2.5% | remaining at 6 h, 45 ng/mL ([2]; heart homogenate, 45.0 ng/mL): 93.8 ± 3.4% | remaining at 6 h, 1600 ng/mL ([2]; heart homogenate, 1600 ng/mL): 106 ± 2% | remaining at 6 h, 45 ng/mL ([2]; kidney homogenate, 45.0 ng/mL): 96.8 ± 2.6% | remaining at 6 h, 1600 ng/mL ([2]; kidney homogenate, 1600 ng/mL): 97.4 ± 2.8% | remaining at 6 h, 45 ng/mL ([2]; large intestine homogenate, 45.0 ng/mL): 92.6 ± 2.9% | remaining at 6 h, 1600 ng/mL ([2]; large intestine homogenate, 1600 ng/mL): 90.3 ± 3.6% | remaining at 24 h, 45 ng/mL ([2]; liver homogenate, 45.0 ng/mL, read-out: Stability Remaining (%, Mean ± SD) Post-Preparative Stability (More Than 24 h at 4 °C)): 105 ± 2.2% | remaining at 6 h, 45 ng/mL ([2]; liver homogenate, 45.0 ng/mL): 103 ± 2.1% | remaining at 24 h, 1600 ng/mL ([2]; liver homogenate, 1600 ng/mL, read-out: Stability Remaining (%, Mean ± SD) Post-Preparative Stability (More Than 24 h at 4 °C)): 94.9 ± 1% | remaining at 6 h, 1600 ng/mL ([2]; liver homogenate, 1600 ng/mL): 97.8 ± 1.2% | remaining at 6 h, 45 ng/mL ([2]; lung homogenate, 45.0 ng/mL): 97.3 ± 4% | remaining at 6 h, 1600 ng/mL ([2]; lung homogenate, 1600 ng/mL): 101 ± 1.7% | remaining at 6 h, 45 ng/mL ([2]; muscle homogenate, 45.0 ng/mL): 102 ± 5.5% | remaining at 6 h, 1600 ng/mL ([2]; muscle homogenate, 1600 ng/mL): 95 ± 2.5% | remaining at 6 h, 45 ng/mL ([2]; small intestine homogenate, 45.0 ng/mL): 91.8 ± 4.8% | remaining at 6 h, 1600 ng/mL ([2]; small intestine homogenate, 1600 ng/mL): 92.9 ± 3.8% | remaining at 6 h, 45 ng/mL ([2]; spleen homogenate, 45.0 ng/mL): 92.7 ± 6% | remaining at 6 h, 1600 ng/mL ([2]; spleen homogenate, 1600 ng/mL): 94.3 ± 4.3% | remaining at 6 h, 45 ng/mL ([2]; stomach homogenate, 45.0 ng/mL): 95 ± 2.9% | remaining at 6 h, 1600 ng/mL ([2]; stomach homogenate, 1600 ng/mL): 97.2 ± 2.2% | Time at which mean concentrations in plasma and multiple tissues peak ([3]; oral suspension, 200 µmol/kg (51.7 mg/kg)): 10 min | Exposure (AUC) ranking across plasma and tissues ([3]; oral, 200 µmol/kg (51.7 mg/kg), AUC from mean concentrations, 5-80 min): stomach > small intestine > liver > large intestine > plasma > kidney > heart > spleen > lung > muscle | Penetration into brain and fat ([3]; oral, 200 µmol/kg, brain and fat samples, quantifiable levels printed as ≥75 ng/mL): only a few reached quantifiable levels | Detectability of ISO in the kidney, liver, and heart over time ([3]; oral, 200 µmol/kg, kidney, liver, heart): undetectable in some mice as early as 20 min | Detectability of ISO in the lung and muscle over time ([3]; oral, 200 µmol/kg, lung, muscle): detectable in the lung and muscle mainly between 10 and 20 min | Quantifiability of ISO in plasma over time ([3]; oral, 200 µmol/kg, plasma): unquantifiable in one out of four mice by 40 min | Change in oral bioavailability after one-week repeated dosing ([4]; one-week repeated dosing): did not result in any significant changes | Absolute oral bioavailability ([4]; rats, oral): 20–30% | Time of peak plasma concentrations post-dosing ([4]; rats, oral): ≤ 15 min | Time of peak plasma concentrations post-dosing [5]: ≤ 15 min | Blood cholesterol levels [6]: healthier blood cholesterol levels | Body weight gain [6]: less body weight gain | Toxicity [6]: no significant toxicity was observed | Anti-COPD activity compared with RES [7]: stronger anti-COPD activity than RES | Glucuronidation [8]: extensive glucuronidation | Sulfation [8]: not detected
